From article PMC5640798 (Synthetic and Systems Biotechnology, 2016) come the findings set out here.

This assay deals with hERG potassium channel (Homo sapiens, UniProt Q12809). The assay is described as follows: hERG channel inhibition test. It counts as cell-based.
hERG potassium channel, sequence (Q12809 whole entry): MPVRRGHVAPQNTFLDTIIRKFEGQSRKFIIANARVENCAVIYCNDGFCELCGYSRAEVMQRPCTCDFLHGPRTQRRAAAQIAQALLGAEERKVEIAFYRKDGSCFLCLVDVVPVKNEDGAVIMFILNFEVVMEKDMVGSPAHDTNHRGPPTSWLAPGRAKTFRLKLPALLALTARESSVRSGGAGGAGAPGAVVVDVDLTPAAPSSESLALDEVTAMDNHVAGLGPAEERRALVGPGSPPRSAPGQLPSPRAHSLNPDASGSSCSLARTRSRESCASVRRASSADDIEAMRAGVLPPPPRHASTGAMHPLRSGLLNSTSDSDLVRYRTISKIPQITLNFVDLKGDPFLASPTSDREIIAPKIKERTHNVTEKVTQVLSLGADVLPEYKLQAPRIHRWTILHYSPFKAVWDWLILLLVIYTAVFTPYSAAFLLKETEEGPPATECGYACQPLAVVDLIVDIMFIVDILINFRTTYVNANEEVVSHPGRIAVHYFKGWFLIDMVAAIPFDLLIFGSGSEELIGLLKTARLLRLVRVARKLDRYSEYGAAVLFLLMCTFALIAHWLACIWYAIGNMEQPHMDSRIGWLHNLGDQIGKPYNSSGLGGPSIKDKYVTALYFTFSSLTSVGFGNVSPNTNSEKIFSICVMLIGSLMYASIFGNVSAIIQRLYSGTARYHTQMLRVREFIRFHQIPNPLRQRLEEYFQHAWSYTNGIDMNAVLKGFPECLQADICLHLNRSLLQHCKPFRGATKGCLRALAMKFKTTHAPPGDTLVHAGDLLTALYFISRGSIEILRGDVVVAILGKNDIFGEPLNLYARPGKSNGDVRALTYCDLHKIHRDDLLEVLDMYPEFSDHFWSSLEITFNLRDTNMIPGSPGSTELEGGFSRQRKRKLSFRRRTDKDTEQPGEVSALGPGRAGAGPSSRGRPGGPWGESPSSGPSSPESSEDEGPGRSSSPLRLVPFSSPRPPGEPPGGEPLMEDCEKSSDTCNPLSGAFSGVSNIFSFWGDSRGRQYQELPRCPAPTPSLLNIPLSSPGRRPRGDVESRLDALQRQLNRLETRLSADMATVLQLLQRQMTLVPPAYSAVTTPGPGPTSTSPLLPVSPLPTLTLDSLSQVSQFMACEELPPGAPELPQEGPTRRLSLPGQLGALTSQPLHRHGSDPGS

Molecule `CC(C)[C@H]1OC(=O)[C@H](Cc2ccccc2)N(C)C(=O)[C@@H](C(C)C)OC(=O)[C@H](Cc2ccccc2)N(C)C(=O)[C@@H](C(C)C)OC(=O)[C@H](Cc2ccccc2)N(C)C1=O` [BEA, beauvericin] showed an IC50 of approximately 2550 nM.
